# Columns and labels:
# [1] = In vitro skin permeation study, flow-through Franz diffusion cell, ViaDerm (micro-channel) treated vs intact skin; type: in vitro ADME, porcine; conditions: for Total permeated amount: after 24 hr
# Method: The density of the microelectrode array was 100 microelectrodes/cm^2. […] The permeability of the cosmetic agents through porcine skin was measured in vitro with a flow-through Franz diffusion cell system (Laboratory Glass Apparatus, Berkeley, Calif.). […] Skin micro-channeling was performed in cells defined as VD (ViaDerm) application group, and then TEWL was measured again to control the operation. The skin pieces were placed on the receiver chambers with the stratum corneum facing upwards, and the donor chambers were clamped in place. […] Samples from the acceptor solutions were collected into tubes (using a fraction collector, Retriever IV, ISCO, Lincoln, Nebr., USA) at predetermined times for up to 24 hr period. The samples were kept at 4° C. until analyzed by HPLC. Samples from the acceptor solutions (10-50 μl) were injected into HPLC system (Waters) equipped with a pre-packed LiChrospher C18 column (150×3.9 mm, 5 μm; Waters), and a UV detector. […] The Salicylic acid samples were separated using an isocratic mobile phase containing 5% methanol 25% Acetonitrile and 0.01 mol/l KH2PO4/H3PO4 buffer pH 2.3 in H2O, at a flow rate 1 ml/min. The detection of salicylic acid was performed at a wavelength of 237 nm. […] The detection of hydroquinone was performed at a wavelength of 280 nm. […] The permeation efficacy is defined as the % of penetrated agent out of total amount of the agent applied on the skin.
# [2] = relative to hydroquinone; cited from earlier work
# [3] = over a 4 to 6 month period, systemic; cited from earlier work
# [4] = ViaDerm treated skin, after 24 h, 0.25 ml solution in donor chamber
# [5] = ViaDerm treated skin, 0.25 ml solution in donor chamber
# [6] = after 3 h, 0.25 ml solution in donor chamber
# [7] = after 24 h, 0.25 ml solution in donor chamber
# [8] = control untreated skin, 0.25 ml solution in donor chamber
# [9] = untreated skin, after 24 h, 0.25 ml solution in donor chamber
"Permeation efficacy [1, 4]","Total permeated amount [1, 5]","Difference in permeated amount, ViaDerm treated compared to untreated skin [1, 6]","Difference in permeated amount, ViaDerm treated compared to untreated skin [1, 7]","Total permeated amount [1, 8]","Permeation efficacy [1, 9]",SMILES,"Quantity required to achieve a similar skin whitening effect, compared to the quantity of hydroquinone used [2]",also measured
27%,1824 μg/cm^2,39 fold,29 fold,62 μg/cm^2,1%,Oc1ccc(O)cc1 [hydroquinone],,
,,,,,,O=C1O[C@H]([C@@H](O)CO)C(O)=C1O [ascorbic acid],17 times,
62%,820 μg/cm^2,17 fold,10 fold,84 μg/cm^2,4%,O=C(O)c1ccccc1O [salicylic acid],,
,,,,,,OC[C@H]1O[C@@H](Oc2ccc(O)cc2)[C@H](O)[C@@H](O)[C@@H]1O [arbutin],over 100 times,
,,,,,,Cn1c(=O)c2c(ncn2C)n(C)c1=O [caffeine],,"Caffeine flux (plateau) ([1]; ViaDerm pretreated skin, after 6 hours, 0.25 ml of 1% w/v aqueous solution): 18.5 ± 2.2 µg/mL; Permeation efficacy ([1]; ViaDerm pretreated skin, after 16 hours, 0.25 ml of 1% w/v solution): 37.1±4.8%; Permeation efficacy, ViaDerm in comparison to untreated skin ([1]; after 16 hours, 0.25 ml of 1% w/v solution): 10 fold; Caffeine flux ([1]; control untreated skin, after 6 hours, 0.25 ml of 1% w/v aqueous solution): 0.4 ± 0.3 µg/mL; Cumulative permeability through ViaDerm treated skin compared to intact skin ([1]; result in words (FIGS. 1, 2, 4)): enhanced; Permeation efficacy ([1]; untreated skin, after 16 hours, 0.25 ml of 1% w/v solution): 3.6±2.6%"
,,,,,,CC1=C(/C=C/C(C)=C/C=C/C(C)=C\C(=O)O)C(C)(C)CCC1 [isotretinoin],,Acne cleared by treatment [3]: ≤ 85%

# Source: US8016810B2, “Transdermal delivery system for cosmetic agents” (TransPharma Medical Ltd., priority 2003, dated 2011)
